Results reported in patent publication US20260083750A1, “SMALL MOLECULE INHIBITORS OF KRAS PROTEINS” (MERCK SHARP & DOHME LLC, priority 2022, published 2026).
pIC50: −log10 of the molar value.

Experiments:
[1] = target: T1, KRAS-G12C (C51S/C80L/C118S) (Homo sapiens, UniProt P01116, C118S/C51S/C80L/G12C); assay: SOS-catalyzed nucleotide exchange assay (Procedure A, TR-FRET); assay type: biochemical; details: 60 min preincubation, SOS + GTP, read-out: KRAS G12C GNE IC50
T1 construct: N-terminal biotin-acceptor peptide […]
T1 sequence (P01116 with tags, fused parts or gaps isoform P01116-2 G12C/C51S/C80L/C118S): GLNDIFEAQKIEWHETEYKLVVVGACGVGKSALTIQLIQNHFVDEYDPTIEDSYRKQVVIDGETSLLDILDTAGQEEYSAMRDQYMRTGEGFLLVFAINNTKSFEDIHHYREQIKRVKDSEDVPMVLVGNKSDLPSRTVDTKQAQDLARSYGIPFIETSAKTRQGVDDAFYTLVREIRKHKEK
Procedure, shortened: (§1)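 Preformed biotinylated RAS–Bodipy-GDP/Tb-streptavidin complex preincubated with compound 60 min at room temperature, then SOS plus GTP (3 mM final) added. Exchange times: G13D 30 min, G12C/D 60 min, G12V 90 min. Final RAS/SOS: G12C 3 nM/40 nM, G12D 1 nM/40 nM, G12V 1.25 nM/160 nM, G13D 1.25 nM/0 nM. TR-FRET 520/495 ratio, four-parameter fit.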

KRAS-G12D = target: T2, KRAS-G12D (Homo sapiens, UniProt P01116, G12D); assay: as above; assay type: biochemical; details: 60 min preincubation, SOS + GTP, read-out: KRAS G12D GNE IC50
T2 construct: N-terminal biotin-acceptor peptide […]
T2 sequence (P01116 with tags, fused parts or gaps isoform P01116-2 G12D): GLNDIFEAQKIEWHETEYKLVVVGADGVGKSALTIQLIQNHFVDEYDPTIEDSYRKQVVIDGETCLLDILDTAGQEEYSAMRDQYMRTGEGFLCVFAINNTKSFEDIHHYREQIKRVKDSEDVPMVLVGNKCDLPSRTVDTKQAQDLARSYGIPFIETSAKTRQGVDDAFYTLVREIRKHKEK
Procedure, shortened: as §1

KRAS-G12V = target: T3, KRAS-G12V (Homo sapiens, UniProt P01116, G12V); assay: as above; assay type: biochemical; details: 60 min preincubation, SOS + GTP, read-out: KRAS G12V GNE IC50
T3 construct: N-terminal biotin-acceptor peptide […]
T3 sequence (P01116 with tags, fused parts or gaps isoform P01116-2 G12V): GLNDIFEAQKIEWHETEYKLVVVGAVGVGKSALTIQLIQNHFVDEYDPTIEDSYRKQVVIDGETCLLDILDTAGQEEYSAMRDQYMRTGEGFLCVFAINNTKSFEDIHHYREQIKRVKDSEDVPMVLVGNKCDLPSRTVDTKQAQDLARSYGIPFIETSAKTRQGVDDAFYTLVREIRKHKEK
Procedure, shortened: as §1

KRAS-G13D = target: T4, KRAS-G13D (Homo sapiens, UniProt P01116, G13D); assay: as above; assay type: biochemical; details: 60 min preincubation, GTP, read-out: KRAS G13D GNE IC50
T4 construct: N-terminal biotin-acceptor peptide […]
T4 sequence (P01116 with tags, fused parts or gaps isoform P01116-2 G13D): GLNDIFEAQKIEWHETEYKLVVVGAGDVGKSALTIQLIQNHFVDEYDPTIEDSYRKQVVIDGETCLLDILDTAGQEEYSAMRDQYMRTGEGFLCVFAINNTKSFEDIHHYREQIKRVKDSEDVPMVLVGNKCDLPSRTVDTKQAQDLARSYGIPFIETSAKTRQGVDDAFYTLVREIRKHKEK
Procedure, shortened: as §1

HRAS = HRAS (Homo sapiens, UniProt P01112); assay: as above; assay type: biochemical; details: 60 min preincubation, SOS + GTP, read-out: HRAS GNE IC50
Chain of HRAS (P01112 with tags, fused parts or gaps): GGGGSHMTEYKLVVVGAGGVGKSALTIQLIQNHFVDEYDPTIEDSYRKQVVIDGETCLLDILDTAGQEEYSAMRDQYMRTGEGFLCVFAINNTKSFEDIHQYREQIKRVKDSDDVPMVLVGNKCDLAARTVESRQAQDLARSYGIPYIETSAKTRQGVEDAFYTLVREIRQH
From the text: (§2) Procedure for SOS-Catalyzed Nucleotide Exchange Assay for KRAS-G12C/D/V, G13D, HRAS, and NRAS (Procedure A)
(§3) Recombinant KRAS-G12C protein used in this assay has an additional triple mutation (C51S/C80L/C118S), whereas KRAS-G12D/V, G13D, HRAS and NRAS are in context of their WT protein sequence background. Specifically, the SOS-catalyzed nucleotide exchange assay utilizes a preformed TR-FRET complex containing a specific biotinylated RAS protein (KRAS-G12C/V/D, G13D, HRAS, NRAS; described above) with Bodipy-GDP, and Terbium-streptavidin. Compounds are preincubated with this complex for 60 minutes. Subsequently, recombinant human SOS protein and unlabeled GTP are added to initiate the exchange reaction. Small molecule inhibitors stabilize the Bodipy-GDP complex whereas the untreated protein rapidly exchanges Bodipy-GDP for unlabeled GTP resulting in reduced TR-FRET signal.
(§4) To assemble the preformed TR-FRET complexes, each biotinylated RAS protein is diluted to 2 μM in an EDTA Buffer (20 mM HEPES pH 7.5, 50 mM sodium chloride, 10 mM EDTA, and 0.01% Tween) and incubated at room temperature for one hour. This mixture is then further diluted to 90 nM in an Assay Buffer (20 mM HEPES pH 7.5, 150 mM sodium chloride, 10 mM magnesium chloride, and 0.005% Tween) containing 15 nM of Terbium-Streptavidin (Invitrogen, catalog #PV3577) and 900 nM of Bodipy-GDP (Invitrogen, catalog #G22360) and incubated at room temperature for six hours. It should be noted that this preformed TR-FRET complex for each of the RAS protein were made ahead of time, aliquoted and stored at −80° C. until the day of the experiment.
(§5) Each test compound (10 mM stock in DMSO) is diluted in DMSO to make a final-10-point, 3-fold dilution and is acoustically dispensed into a 384-well assay plate (Corning, catalog #3820) using an Echo 550 (Labcyte). Each well of the assay plate receives 3 μL of a specific 3× RAS preformed TR-FRET complex and 3 μL of Assay Buffer and is incubated at room temperature for 60 minutes (preincubation time). Each well then receives 3 μL of 3× recombinant human SOS protein and GTP (Sigma, G8877) in Assay Buffer and is incubated at room temperature for 30 minutes (G13D), 60 minutes (G12C/D, H/NRAS) or 90 minutes for G12V. The final reaction in each well of […] consists of 3 mM GTP, specific Ras and SOS proteins in the following concentrations: KRAS-G12C/SOS=3 nM/40 nM, KRAS-G12D/SOS=1 nM/40 nM, KRAS-G12V/SOS=1.25 nM/160 nM, KRAS-G13D/SOS=1.25 nM/0 nM, HRAS & NRAS=1.25 nM/40 nM.
(§6) The time-resolved fluorescence resonance energy transfer (TR-FRET) signal is measured on an Envision (PerkinElmer) plate reader: Excitation filter=340 nm; emission1=495 nm; emission2=520 nm; dichroic mirror=D400/D505; delay time=[…]. The signal of each well is determined as the ratio of the emission at 520 nm to that at 495 nm. Percent effect of each well is determined after normalization to control wells containing DMSO (no effect) or a saturating concentration of inhibitor (max effect). The apparent effect as a function of compound concentration is fit to a four-parameter logistic equation.

NRAS = NRAS (Homo sapiens, UniProt P01111); assay: as above; assay type: biochemical; details: 60 min preincubation, SOS + GTP, read-out: NRAS GNE IC50
Chain of NRAS (P01111 with tags, fused parts or gaps): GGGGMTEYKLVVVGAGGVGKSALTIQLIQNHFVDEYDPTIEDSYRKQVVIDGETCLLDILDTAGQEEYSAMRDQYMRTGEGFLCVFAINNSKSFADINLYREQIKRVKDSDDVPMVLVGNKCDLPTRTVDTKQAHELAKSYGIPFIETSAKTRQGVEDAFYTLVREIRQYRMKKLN
From the text: as §2, §3, §4, §5, §6

[2] = tested on: PANC08.13 cells (homozygous KRAS-G12D activating mutation); assay: Cellular phospho-ERK assay in G12D cell line; assay type: cell-based; details: Homo sapiens, PANC-08-13, 2 hours compound incubation, ratio of p-ERK vs. total ERK, read-out: PANC 0813 pERK IC50
Experimental: (§7) Procedure for Cellular Phospho-ERK Assay in G12D and G12V Cell Lines
(§8) PANC08.13 cells (ATCC® CRL-2551™), containing homozygous KRAS-G12D activating mutation, were cultured in growth medium made of RPMI1640-GlutaMAX™—I (ThermoFisher Scientific 61870) containing 15% heat inactivated fetal bovine serum (ThermoFisher Scientific 10091148)). SW620 cells (ATCC® […]), containing homozygous KRAS-G12V activating mutation, were cultured in growth medium that contains RPMI 1640-GlutaMAX™—I (ThermoFisher Scientific 61870) containing 10% heat inactivated fetal bovine serum (ThermoFisher Scientific 10091148).
(§9) Cells for the assay were harvested in growth medium after TrypLE (ThermoFisher scientific 12604021) digestion and were seeded in a 384-well collagen coated cell culture plate (Corning 356702) at a density of 10,000-15,000 cells/20 uL/well, and incubated at 37° C., 5% CO2 overnight. The compound (with 10 mM stock concentration) dose-response titrations were prepared [30 μM final ERK detection assay concentration and 1:3 dilutions, 10-point dose response] and appropriate amounts (270 nL) of test compounds were dispensed in a 384-well intermediate plate using an Echo 550 liquid handler. 30 uL/well of RPMI medium 1640-GlutaMAX™—I was added to the intermediate plate and the contents of the intermediate plate (10 uL/well) were then transferred to the 384-well collagen coated cell culture plate, which was incubated at 37° C., 5% CO2 for 2 hours. After removal of medium from the collagen coated cell culture plate, cells were lysed in lysis buffer from Alpha SureFire® Ultra™ Multiplex p-ERK and total ERK assay kit (PerkinElmer MPSU-PTERK) containing Halt™ Protease and Phosphatase inhibitor cocktail (ThermoFisher Scientific 78446) at room temperature with constant shaking at 300 rpm for 30 minutes. The cell lysates were then transferred to an OptiPlate-384 plate (PerkinElmer 6005620), and the phosphorylation of ERK (p-ERK) and total ERK levels were detected by Alpha SureFire® Ultra™ Multiplex p-EEK kit and total ERK assay kit (PerkinElmer MPSU-PTERK) following the manufacturer's protocol. Assay plates were read on a EnVision Multimode Plate Reader (PerkinElmer), and the ratio of p-ERK vs. total ERK in each well was used as the final readout. Dose response curves were analyzed using a 4-parameter logistic model to calculate IC50 values using Spotfire software.

[3] = tested on: SW620 cells (homozygous KRAS-G12V activating mutation); assay: Cellular phospho-ERK assay in G12V cell line; assay type: cell-based; details: Homo sapiens, SW-620, 2 hours compound incubation, ratio of p-ERK vs. total ERK, read-out: SW620 pERK IC50
Experimental: as §7, §8, §9

| SMILES | pIC50 [1] | pIC50 (KRAS-G12D) | pIC50 (KRAS-G12V) | pIC50 (KRAS-G13D) | pIC50 (HRAS) | pIC50 (NRAS) | pIC50 [2] | pIC50 [3] |
| --- | --- | --- | --- | --- | --- | --- | --- | --- |
| C[C@H]1CCOCCN1c1nc(OC[C@@]23CCCN2C[C@H](F)C3)nc2c(F)c(-c3ccc(F)c4sc(N)c(C#N)c34)c(Cl)cc12 (single isomer, unassigned) [Ex. 19] | 8.22 | 8.62 | 8.63 | 8.63 | 5.68 | 5.37 | 7.47 | 7.82 |
| N#Cc1c(N)sc2c(F)ccc(-c3c(Cl)cc4c(N5CCCCCC5)nc(OC[C@@]56CCCN5C[C@H](F)C6)nc4c3F)c12 [Ex. 1, 2-amino-4-(4-(azepan-1-yl)-6-chloro-8-fluoro-2-(((2R,7aS)-2-fluorotetrahydro-1H-pyrrolizin-7a(5H)-yl)methoxy)quinazolin-7-yl)-7-fluorobenzo[b]thiophene-3-carbonitrile] | – | – | – | – | < 4.96 | < 4.96 | 7.16 | 7.13 |
| C[C@H]1CCCCCN1c1nc(OC[C@@]23CCCN2C[C@H](F)C3)nc2c(F)c(-c3ccc(F)c4sc(N)c(C#N)c34)c(Cl)cc12 [Ex. 3, 2-amino-4-(6-chloro-8-fluoro-2-(((2R,7aS)-2-fluorotetrahydro-1H-pyrrolizin-7a(5H)-yl)methoxy)-4-((S)-2-methylazepan-1-yl)quinazolin-7-yl)-7-fluorobenzo[b]thio-phene-3-carbonitrile] | 7.51 | 6.95 | 7.39 | 7.26 | < 4.96 | < 4.96 | 6.11 | 6.09 |
| N#Cc1c(N)sc2c(F)ccc(-c3c(Cl)cc4c(N5CCCOCC5)nc(OC[C@@]56CCCN5C[C@H](F)C6)nc4c3F)c12 [Ex. 4, 2-amino-4-(6-chloro-8-fluoro-2-(((2R,7aS)-2-fluorotetrahydro-1H-pyrrolizin-7a(5H)-yl)methoxy)-4-(1,4-oxazepan-4-yl)quinazolin-7-yl)-7-fluorobenzo[b]thio-phene-3-carbonitrile] | 7.81 | 8.12 | 8.48 | 8.12 | < 4.96 | < 4.96 | 7.25 | 7.31 |
| C[C@H]1CCOCCN1c1nc(OC[C@@]23CCCN2C[C@H](F)C3)nc2c(F)c(-c3ccc(F)c4sc(N)c(C#N)c34)c(Cl)cc12 [Ex. 6, 2-amino-4-(6-chloro-8-fluoro-2-(((2R,7aS)-2-fluorotetrahydro-1H-pyrrolizin-7a(5H)-yl)methoxy)-4-((S)-5-methyl-1,4-oxazepan-4-yl)quinazolin-7-yl)-7-fluorobenzo[b]thio-phene-3-carbonitrile] | 8.04 | 8.42 | 8.50 | 8.62 | 5.66 | 5.02 | 7.47 | 7.73 |
| N#Cc1c(N)sc2c(F)ccc(-c3ncc4c(N5CCCOCC5)nc(OC[C@@]56CCCN5C[C@H](F)C6)nc4c3F)c12 [Ex. 20, 2-amino-7-fluoro-4-(8-fluoro-2-(((2R,7aS)-2-fluorotetrahydro-1H-pyrrolizin-7a(5H)-yl)methoxy)-4-(1,4-oxazepan-4-yl)pyrido[4,3-d]pyrimidin-7-yl)benzo[b]thiophene-3-carbonitrile] | 7.12 | 6.53 | 7.22 | 7.03 | < 4.96 | < 4.96 | 5.85 | 6.29 |
| CN(C)C[C@@]1(COc2nc(N3CCCOCC3)c3cc(Cl)c(-c4ccc(F)c5sc(N)c(C#N)c45)c(F)c3n2)CC1(F)F [Ex. 24, 2-amino-4-(6-chloro-2-(((R)-1-((dimethylamino)methyl)-2,2-difluorocyclopropyl)methoxy)-8-fluoro-4-(1,4-oxazepan-4-yl)quinazolin-7-yl)-7-fluorobenzo[b]thiophene-3-carbonitrile] | 7.52 | 7.29 | 8.02 | 7.54 | < 4.96 | < 4.96 | 6.63 | 7.03 |
| CCNC[C@@]1(COc2nc(N3CCCOCC3)c3cc(Cl)c(-c4ccc(F)c5sc(N)c(C#N)c45)c(F)c3n2)CC1(F)F [compound 30, 2-amino-4-(6-chloro-2-(((R)-1-((ethylamino)methyl)-2,2-difluorocyclopropyl)methoxy)-8-fluoro-4-(1,4-oxazepan-4-yl)quinazolin-7-yl)-7-fluorobenzo[b]thiophene-3-carbonitrile] | – | 6.69 | 7.48 | – | – | – | 6.07 | 6.52 |
